Source: US7217730B2, “Method for the use of pyranoindole derivatives to treat infection with Hepatitis C virus” (Wyeth, priority 2002, dated 2007)

Experiments:
[1] = target: T1, NS5B from the BK strain (genotype 1b) (Hepatitis C virus genotype 1b, UniProt P26663); assay: Hepatitis C polymerase inhibition, NS5B BK strain, 33P-GTP filter assay; type: biochemical; details: Table 1B; NS5B BK strain; read-out: BK IC50
T1 construct: NS5B from the BK strain (genotype 1b) is expressed in E. coli as a protein in which the 21 C-terminal amino acids are replaced; made in house; host or cells: E. coli
In short: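 Radiolabelled RNA synthesis was measured by filter capture and scintillation counting after EDTA stop. His-tagged, C-terminally truncated (Δ21) genotype 1b BK NS5B from E. coli, pre-exposed to compound for 15 min, copied a self-primed RNA template (~3 nM) with α-[33P]-GTP for 2 h at room temperature.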

[2] = target: BB7 (RNA-dependent RNA polymerase hepatitis C virus protein sequence derived from HCV replicon) (Hepatitis C virus genotype 1b, UniProt Q9WMX2); assay: Hepatitis C polymerase inhibition, BB7 sequence; type: biochemical; details: Table 1B
Chain of BB7 (RNA-dependent RNA polymerase hepatitis C virus protein sequence derived from HCV replicon) (Q9WMX2 2420-3010): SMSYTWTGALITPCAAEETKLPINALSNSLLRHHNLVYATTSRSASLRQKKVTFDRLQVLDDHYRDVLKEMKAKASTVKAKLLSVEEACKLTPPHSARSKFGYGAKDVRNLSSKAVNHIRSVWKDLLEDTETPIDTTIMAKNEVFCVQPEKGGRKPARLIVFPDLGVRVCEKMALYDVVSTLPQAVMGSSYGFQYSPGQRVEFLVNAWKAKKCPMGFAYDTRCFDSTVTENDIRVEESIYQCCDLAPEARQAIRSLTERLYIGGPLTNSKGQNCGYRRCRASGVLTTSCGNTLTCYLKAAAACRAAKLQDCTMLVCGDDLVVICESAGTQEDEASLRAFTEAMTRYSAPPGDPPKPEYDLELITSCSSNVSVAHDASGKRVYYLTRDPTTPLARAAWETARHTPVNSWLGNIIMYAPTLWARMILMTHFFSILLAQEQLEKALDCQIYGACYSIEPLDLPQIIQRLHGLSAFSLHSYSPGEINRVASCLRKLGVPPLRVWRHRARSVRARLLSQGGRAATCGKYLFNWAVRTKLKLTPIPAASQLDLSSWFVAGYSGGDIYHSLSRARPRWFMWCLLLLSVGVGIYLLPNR

T1 sequence (P26663 2420-2989): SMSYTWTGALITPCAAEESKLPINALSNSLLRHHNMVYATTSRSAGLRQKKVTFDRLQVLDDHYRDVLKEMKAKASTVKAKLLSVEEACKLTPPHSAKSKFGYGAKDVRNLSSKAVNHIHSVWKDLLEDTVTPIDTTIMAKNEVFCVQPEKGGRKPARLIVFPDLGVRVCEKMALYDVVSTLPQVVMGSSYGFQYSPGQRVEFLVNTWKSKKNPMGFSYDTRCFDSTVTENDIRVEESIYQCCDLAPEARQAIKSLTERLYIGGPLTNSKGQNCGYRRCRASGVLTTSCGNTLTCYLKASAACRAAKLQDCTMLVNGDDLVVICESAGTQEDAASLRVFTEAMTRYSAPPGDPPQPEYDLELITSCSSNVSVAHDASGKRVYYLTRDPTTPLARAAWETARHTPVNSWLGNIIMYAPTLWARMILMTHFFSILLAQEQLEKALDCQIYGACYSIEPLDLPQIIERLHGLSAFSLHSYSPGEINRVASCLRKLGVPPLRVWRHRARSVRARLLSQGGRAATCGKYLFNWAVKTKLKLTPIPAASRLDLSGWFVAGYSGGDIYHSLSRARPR

| Compound | IC50 [1] [µM] | IC50 [2] [µM] |
| --- | --- | --- |
| CCCC1(CC(=O)O)OCCc2c1[nH]c1c(C(C)C)ccc(C#N)c21 (centres unmarked) [Example 297, [5-cyano-8-(1-methylethyl)-1-propyl-1,3,4,9-tetrahydropyrano[3,4-b]indol-1-yl]acetic acid] | 1.8 | 2.8 |
| CC[C@@H](C)[C@@]1(C(=O)O)OCCc2c1[nH]c1c(F)ccc(C#N)c21 (relative stereo) [Example 349, (1R*,10R*)-[5-cyano-8-fluoro-1-(1-methylpropyl)-1,3,4,9-tetrahydropyrano[3,4-b]indol--1-yl]carboxylic acid] | 4.4 | > 24 |
| (5-cyano-7-ethoxy-8-methyl-1-propyl-1,3,4,9-tetrahydro-pyrano[3,4-b]indol-1-yl)-acetic acid [Example 362] | 0.11 | 0.07 |
| CC[C@H](C)C1(CC(=O)O)OCCc2c1[nH]c1c(C)cc(F)c(C#N)c21 (mixture of isomers) [Example 318, (1R*,10S)-[5-cyano-6-fluoro-8-methyl-1-(1-methylpropyl)-1,3,4,9-tetrahydropyrano[3,4-b]indol-1-yl]acetic acid] | 0.14 | 0.25 |
| C=CCCC1(C(=O)O)OCCc2c1[nH]c1c(F)ccc(C#N)c21 (centres unmarked) [Example 346, [1-(3-butenyl)-5-cyano-8-fluoro-1,3,4,9-tetrahydropyrano[3,4-b]indol-1-yl]carboxylic acid] | 6.1 | 8 |
| Cc1ccc(Cl)c2c3c([nH]c12)C(CC(=O)O)(C1CCC1)OCC3 (centres unmarked) [Example 259, (5-chloro-1-cyclobutyl-8-methyl-1,3,4,9-tetrahydropyrano[3,4-b]indol-1-yl)acetic acid] | 0.5 | 1.6 |
| COCC1(CC(=O)O)OCCc2c1[nH]c1c(F)ccc(C#N)c21 (centres unmarked) [Example 303, (5-cyano-8-fluoro-1-methoxymethyl-1,3,4,9-tetrahydropyrano[3,4-b]indol-1-yl)acetic acid] | > 30 | > 30 |
| CCC[C@@]1(CC(=O)O)OCCc2c1[nH]c1c(Cl)ccc(C#N)c21 [Example 323, (1S)-(8-chloro-5-cyano-1-propyl-1,3,4,9-tetrahydropyrano[3,4-b]indol-1-yl)acetic acid] | 4.9 | 11 |
| CCC(C)C1(CC(=O)O)OCCc2c1[nH]c1c(Cl)ccc(Cl)c21 (centres unmarked) [Example 256, [5,8-dichloro-1-(1-methylpropyl)-1,3,4,9-tetrahydropyrano[3,4-b]indol-1-yl]acetic acid] | 0.15 | 0.34 |
| CC[C@@H](C)[C@@]1(CC(=O)O)OCCc2c1[nH]c1c(F)ccc(C#N)c21 (single isomer, unassigned) [Example 312, (1R*,10R*)-[5-cyano-8-fluoro-1-(1-methylpropyl)-1,3,4,9-tetrahydropyrano[3,4-b]indol-1-yl]acetic acid] | 16 | > 30 |
| CCSCC1(CC(=O)O)OCCc2c1[nH]c1c(Cl)ccc(Cl)c21 (centres unmarked) [Example 250, (5,8-dichloro-1-ethylthiomethyl-1,3,4,9-tetrahydropyrano[3,4-b]indol-1-yl)acetic acid] | 3.7 | 3.9 |
| N#Cc1ccc(Cl)c2[nH]c3c(c12)CCOC3(CC(=O)O)C1CCC1 (centres unmarked) [Example 327, (8-chloro-5-cyano-1-cyclobutyl-1,3,4,9-tetrahydropyrano[3,4-b]indol-1-yl)acetic acid] | 0.8 | 1.7 |
| CCCC1(C(=O)O)OCCc2c1[nH]c1ccc(Cl)c(Cl)c21 (centres unmarked) [Example 328, (5,6-dichloro-1-propyl-1,3,4,9-tetrahydropyrano[3,4-b]indol-1-yl)carboxylic acid] | 4.3 | 3.9 |
| Cc1ccc(C#N)c2c3c([nH]c12)[C@](CC(=O)O)(C1CCC1)OCC3 [Example 286, (1S)-(5-cyano-1-cyclobutyl-8-methyl-1,3,4,9-tetrahydropyrano[3,4-b]indol-1-yl)acetic acid] | > 30 | > 30 |
| CCCCOc1cc(C#N)c2c3c([nH]c2c1C)C(CCC)(CC(=O)O)OCC3 (centres unmarked) [Example 365, (7-butoxy-5-cyano-8-methyl-1-propyl-1,3,4,9-tetrahydro-pyrano[3,4-b]indol-1-yl)-acetic acid] | 0.1 | 0.06 |
| CSCC1(CC(=O)O)OCCc2c1[nH]c1c(F)ccc(C#N)c21 (centres unmarked) [Example 305, (5-cyano-8-fluoro-1-methylthiomethyl-1,3,4,9-tetrahydropyrano[3,4-b]indol-1-yl)acetic acid] | > 30 | > 30 |
| O=C(O)CC1(C2CCC2)OCCc2c1[nH]c1c(F)ccc(C(F)(F)F)c21 (centres unmarked) [Example 269, (1-cyclobutyl-8-fluoro-5-trifluoromethyl-1,3,4,9-tetrahydropyrano[3,4-b]indol-1-yl)acetic acid] | 9.4 | 9.4 |

| Compound | IC50 [1] [µM] | IC50 [2] [µM] |
| --- | --- | --- |
| CC[C@H](C)[C@@]1(CC(=O)O)OCCc2c1[nH]c1c(C)cc(F)c(C#N)c21 [Example 319, (1R,10S)-[5-cyano-6-fluoro-8-methyl-1-(1-methylpropyl)-1,3,4,9-tetrahydropyrano[3,4-b]indol-1-yl]acetic acid] | 0.06 | 0.08 |
| (8-fluoro-5-nitro-1-propyl-1,3,4,9-tetrahydropyrano[3,4-b]indol-1-yl)carboxylic acid [Example 352] | 0.9 | 2.8 |
| Cc1ccc(C(F)(F)F)c2c3c([nH]c12)C(CC(=O)O)(C1CCC1)OCC3 (centres unmarked) [Example 275, (1-cyclobutyl-8-methyl-5-trifluoromethyl-1,3,4,9-tetrahydropyrano[3,4-b]indol-1-yl)acetic acid] | 1.2 | 3.5 |
| COCC1(CC(=O)O)OCCc2c1[nH]c1ccc(Cl)c(Cl)c21 (centres unmarked) [Example 237, (5,6-Dichloro-1-methoxymethyl-1,3,4,9-tetrahydropyrano[3,4-b]indol-1-yl)acetic acid] | > 27 | > 24 |
| CC[C@H](C)[C@@]1(CC(=O)O)OCCc2c1[nH]c1c(F)ccc(C#N)c21 (racemic) [Example 313, (1R*,10S*)-[5-cyano-8-fluoro-1-(1-methylpropyl)-1,3,4,9-tetrahydropyrano[3,4-b]indol-1-yl]acetic acid] | 1.8 | 1.5 |
| O=C(O)CC1(CC2CC2)OCCc2c1[nH]c1c(Cl)ccc(Cl)c21 (centres unmarked) [Example 257, (5,8-dichloro-1-cyclopropylmethyl-1,3,4,9-tetrahydropyrano[3,4-b]indol-1-yl)acetic acid] | 1.9 | 2.9 |
| N#Cc1ccc(F)c2[nH]c3c(c12)CCOC3(CCC(F)(F)F)CC(=O)O (centres unmarked) [Example 301, [5-cyano-8-fluoro-1-(3,3,3-trifluoropropyl)-1,3,4,9-tetrahydropyrano[3,4-b]indol-1-yl]acetic acid] | 5.4 | 11.3 |
| CCCC1(CC(=O)O)OCCc2c1[nH]c1c(C)c(OC)cc(C#N)c21 (centres unmarked) [Example 363, (5-cyano-7-methoxy-8-methyl-1-propyl-1,3,4,9-tetrahydro-pyrano[3,4-b]indol-1-yl)-acetic acid] | 0.36 | 0.13 |
| CC[C@H](C)[C@@]1(C(=O)O)OCCc2c1[nH]c1c(F)ccc(C#N)c21 (racemic) [Example 348, (1R*,10S*)-[5-cyano-8-fluoro-1-(1-methylpropyl)-1,3,4,9-tetrahydropyrano[3,4-b]indol-1-yl]carboxylic acid] | > 30 | > 30 |
| CCC1(CC(=O)O)OCCc2c1[nH]c1c(Cl)ccc(Cl)c21 (centres unmarked) [Example 243, (5,8-dichloro-1-ethyl-1,3,4,9-tetrahydropyrano[3,4-b]indol-1-yl)acetic acid] | 6.3 | 10 |
| CCCC1(C(=O)O)OCCc2c1[nH]c1c(CC)ccc(C#N)c21 (centres unmarked) [Example 340, (5-cyano-8-ethyl-1-propyl-1,3,4,9-tetrahydropyrano[3,4-b]indol-1-yl)carboxylic acid] | > 30 | > 28 |
| CCCC1(CC(=O)O)OCCc2c1[nH]c1c(C)c(C(=O)NC)cc(C#N)c21 (centres unmarked) [Example 357, (5-cyano-8-methyl-7-methylcarbamoyl-1-propyl-1,3,4,9-tetrahydro-pyrano[3,4-b]indol-1-yl)-acetic acid] | 1.3 | 0.97 |
| O=C(O)CC1(CCC(F)(F)F)OCCc2c1[nH]c1c(Cl)ccc(Cl)c21 (centres unmarked) [Example 245, [5,8-dichloro-1-(3,3,3-trifluoropropyl)-1,3,4,9-tetrahydropyrano[3,4-b]indol-1-yl]acetic acid] | 0.4 | 0.74 |
| CCC(C)C1(CC(=O)O)OCCc2c1[nH]c1c(F)ccc(C#N)c21 (racemic) [Example 314, (1R*,10S)-[5-cyano-8-fluoro-1-(1-methylpropyl)-1,3,4,9-tetrahydropyrano[3,4-b]indol-1-yl]acetic acid] | 1.4 | 3.1 |
| N#Cc1ccc(F)c2[nH]c3c(c12)CCOC3(CC(=O)O)C1CCC1 (centres unmarked) [Example 307, (5-cyano-1-cyclobutyl-8-fluoro-1,3,4,9-tetrahydropyrano[3,4-b]indol-1-yl)acetic acid] | 5.8 | 9.6 |
| CCCC1(CC(=O)O)OCCc2c1[nH]c1c(C)c(OCc3ccccc3)cc(C#N)c21 (centres unmarked) [Example 368, (7-benzyloxy-5-cyano-8-methyl-1-propyl-1,3,4,9-tetrahydro-pyrano[3,4-b]indol-1-yl)-acetic acid] | 0.11 | 0.13 |
| N#CCCCC1(CC(=O)O)OCCc2c1[nH]c1c(Cl)ccc(Cl)c21 (centres unmarked) [Example 244, [5,8-dichloro-1-(3-cyanopropyl)-1,3,4,9-tetrahydropyrano[3,4-b]indol-1-yl)acetic acid] | 0.3 | 1.8 |
